Results on three molecules are retold here after ChEMBL document CHEMBL1151068, “Rollimembrin, a novel acetogenin inhibitor of mammalian mitochondrial complex I” (Bioorg Med Chem Lett, 1997).

What is called IC50 is the concentration at which inhibition is half-maximal.

The target of the assay is Mitochondrial complex I; NADH oxidoreductase (Bos taurus, UniProt P25708+P52505). Description: Concentration required for the inhibition of NADH oxidase in submitochondrial particles from beef heart. It counts as protein-complex assay.
Mitochondrial complex I; NADH oxidoreductase, sequence (P25708 21-464 limits assumed, other chains not shown): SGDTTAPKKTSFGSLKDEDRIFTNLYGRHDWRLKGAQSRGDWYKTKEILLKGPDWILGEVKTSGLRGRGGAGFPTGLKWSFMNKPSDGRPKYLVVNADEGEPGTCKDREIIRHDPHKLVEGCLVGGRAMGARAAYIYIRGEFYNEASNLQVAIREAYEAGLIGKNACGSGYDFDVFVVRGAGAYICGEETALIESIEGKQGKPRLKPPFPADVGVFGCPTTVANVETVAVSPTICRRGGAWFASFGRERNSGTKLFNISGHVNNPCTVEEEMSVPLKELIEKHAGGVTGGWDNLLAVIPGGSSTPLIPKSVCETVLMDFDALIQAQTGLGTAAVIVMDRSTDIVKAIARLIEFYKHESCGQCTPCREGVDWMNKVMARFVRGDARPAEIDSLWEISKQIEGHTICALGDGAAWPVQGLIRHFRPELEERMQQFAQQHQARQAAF

Molecule `CCCCCCCCCC[C@H](O)[C@H]1CC[C@@H]([C@@H]2CC[C@H]([C@H](O)CCCCCCCC[C@@H](O)CC3=C[C@@H](C)OC3=O)O2)O1` returned an IC50 of 0.33 nM.
Next, `CCCCCCCCCC[C@H](O)[C@H]1CC[C@@H]([C@@H]2CC[C@H]([C@H](O)CCCCCCCCCC[C@@H](O)CC3=C[C@@H](C)OC3=O)O2)O1`: 0.58 nM; `CCCCCCCCCC[C@H](O)[C@H]1CC[C@@H]([C@@H]2CC[C@H]([C@H](O)CCCCCCCCCCCCC3=C[C@@H](C)OC3=O)O2)O1`: 0.58 nM.
